Reference: patent publication EP2801357A1, “Carboxylated stilbenes for activating AMPK and sirtuins” (IMD Natural Solutions GmbH, priority 2013, dated 2014)
Read-outs that look alike come from different tables or passages of the source.

Key:
human sirtuin-1 (Sirt1) = molecular target: T1, human sirtuin-1 (Sirt1) (Homo sapiens, UniProt Q96EB6); assay: SIRT1 Fluorimetric Drug Discovery Kit, Sirt1 activation; format: biochemical
T1 construct: purchased BioMol, Hamburg, Germany
T1 sequence (Q96EB6 1-747): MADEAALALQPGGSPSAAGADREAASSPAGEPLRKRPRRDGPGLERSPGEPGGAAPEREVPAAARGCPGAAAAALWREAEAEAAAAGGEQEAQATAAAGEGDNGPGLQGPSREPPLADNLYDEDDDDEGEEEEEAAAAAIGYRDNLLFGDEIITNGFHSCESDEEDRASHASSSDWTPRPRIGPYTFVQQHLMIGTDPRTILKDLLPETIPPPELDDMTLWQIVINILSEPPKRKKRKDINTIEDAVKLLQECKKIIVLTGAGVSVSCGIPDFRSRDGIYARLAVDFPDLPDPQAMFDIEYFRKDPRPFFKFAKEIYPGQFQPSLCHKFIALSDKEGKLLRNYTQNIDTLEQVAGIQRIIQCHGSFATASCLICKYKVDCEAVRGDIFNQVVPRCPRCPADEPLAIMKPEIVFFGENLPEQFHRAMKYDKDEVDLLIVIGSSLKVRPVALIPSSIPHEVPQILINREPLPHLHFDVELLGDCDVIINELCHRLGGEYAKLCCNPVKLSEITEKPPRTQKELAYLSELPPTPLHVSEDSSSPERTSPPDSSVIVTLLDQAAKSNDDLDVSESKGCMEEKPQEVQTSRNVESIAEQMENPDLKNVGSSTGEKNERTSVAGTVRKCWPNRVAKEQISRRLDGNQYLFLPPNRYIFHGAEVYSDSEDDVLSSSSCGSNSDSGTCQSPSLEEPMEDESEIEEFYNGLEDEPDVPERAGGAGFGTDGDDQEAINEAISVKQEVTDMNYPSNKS
Method: Compounds were tested for Sirt1 activation using the SIRT1 Fluorimetric Drug Discovery Kit (BioMol, Hamburg, Germany), Testing was carried out in duplicate following the manufacturer's instructions. Assay medium: 50mM Tris-HCl pH 8.0, 137 mM NaCl, 2.7 mM KCI, 1 mM MgCl2, 1 mg/ml bovine serum albumin (BSA). Stock solutions of the test compounds (10 mM in DMSO) were used, yielding a final concentration of 10 µM in the assay plate. Readout was obtained by measuring the fluorescence in a microtiter plate reader (excitation: 380 nm; detection: 440 nm).
The agonistic effect on Sirt1 was determined at different concentrations. For this purpose, the test compound stock solutions were diluted to yield concentrations of 0.3, 1, 3, 10 and 30 µM, respectively, in the assay, which was performed as described above. The compound of structure (I-1) was selected for this experiment.
The selectivity of the agonistic effect of the compound of formula (I-1) on different sirtuin isoforms was investigated. For this purpose, in vitro testing was performed as described in Example 1 using the respective SIRT1 Fluorimetric Drug Discovery Kit, SIRT2 Fluorimetric Drug Discovery Kit, and SIRT3 Fluorimetric Drug Discovery Kit (each from BioMol, Hamburg, Germany). […] The dose-response effect is slightly lesser on Sirt3. Table 3: Activity on Sirt1

Sirt2 = molecular target: T2, Sirt2 (Homo sapiens, UniProt Q8IXJ6); assay: SIRT2 Fluorimetric Drug Discovery Kit, Sirt2 activation; format: biochemical
T2 construct: purchased BioMol, Hamburg, Germany
T2 sequence (Q8IXJ6 1-389): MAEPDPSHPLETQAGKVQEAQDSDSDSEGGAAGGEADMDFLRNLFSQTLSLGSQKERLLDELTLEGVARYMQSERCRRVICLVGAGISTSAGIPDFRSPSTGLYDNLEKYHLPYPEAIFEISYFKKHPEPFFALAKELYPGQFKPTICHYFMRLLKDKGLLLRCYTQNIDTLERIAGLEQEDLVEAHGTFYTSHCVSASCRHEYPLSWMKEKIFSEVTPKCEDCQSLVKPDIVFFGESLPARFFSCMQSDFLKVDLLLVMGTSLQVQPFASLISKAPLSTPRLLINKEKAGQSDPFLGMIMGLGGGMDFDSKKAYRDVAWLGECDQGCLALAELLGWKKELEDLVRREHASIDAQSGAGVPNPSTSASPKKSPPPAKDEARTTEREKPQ

[1] = tested on: 5'-AMP-activated protein kinase (AMPK); assay: Western blot analysis of AMPK phosphorylation in NHEK; format: cell-based, human; details: 48 h;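 for P-AMPK: Chemiluminescence band density of P-AMPK measured with Multigauge software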
[2] = tested on: normal human epidermal keratinocytes (NHEK); assay: MTT reduction assay, cytotoxicity in NHEK; format: cell-based
Method: Culture conditions: 37 °C, 5 % CO2. Culture medium: Keratinocyte-SFM (serum-free medium) containing human recombinant epidermal growth factor (EGF 1-53) 0.25 ng/mL and bovine pituitary extract 25 µg/mL (Gibco; Cat. No. 17005-075), supplemented with gentamycin 25 µg/mL. Assay medium: Keratinocyte-SFM (Gibco; Cat. No. 10744-019), supplemented with gentamycin 25 µg/mL.
NHEK were seeded in 24-well plates (30.000 cells / well) and cultured in culture medium for 24 h and then in assay medium for another 24 h. Medium was then removed and replaced by assay medium containing the respective test compound or reference in defined concentrations.
Cytotoxicity was determined using the 3-(4,5-dimethylthiazol-2-yl)-2,5-diphenyltetrazoliumbromid (MTT) reduction assay (sse T. Mosmann (1983) J. Immunol. Methods. 65, pp. 55-63).

[3] = Experiment 1, Membrane 1, 10 µM
[4] = Experiment 1, Membrane 1, 30 µM

- Fold increase in sirt1 activity versus control (human sirtuin-1 (Sirt1); Example 1(a), 10 µM, trans-resveratrol as control (1.0)): 23.9
- remaining activity at 0.3 µM (human sirtuin-1 (Sirt1); Example 1(b), Table 2, 0.3 µM, read-out: Activity [% control]): 147%
- remaining activity at 1 µM (human sirtuin-1 (Sirt1); Example 1(b), Table 2, 1.0 µM, read-out: Activity [% control]): 233%
- remaining activity at 3 µM (human sirtuin-1 (Sirt1); Example 1(b), Table 2, 3.0 µM, read-out: Activity [% control]): 434%
- remaining activity at 10 µM (human sirtuin-1 (Sirt1); Example 1(b), Table 2, 10.0 µM, read-out: Activity [% control]): 626%
- EC300 (human sirtuin-1 (Sirt1); Example 1(b), concentration that gave 3-times the basal response of the enzyme): 2.0 µM
- remaining activity at 0.3 µM (human sirtuin-1 (Sirt1); Example 2, Table 3, 0.3 µM, read-out: Activity [% control]): 111%
- remaining activity at 1 µM (human sirtuin-1 (Sirt1); Example 2, Table 3, 1.0 µM, read-out: Activity [% control]): 121%
- remaining activity at 3 µM (human sirtuin-1 (Sirt1); Example 2, Table 3, 3.0 µM, read-out: Activity [% control]): 168%
- remaining activity at 10 µM (human sirtuin-1 (Sirt1); Example 2, Table 3, 10.0 µM, read-out: Activity [% control]): 256%
- remaining activity at 30 µM (human sirtuin-1 (Sirt1); Example 2, Table 3, 30.0 µM, read-out: Activity [% control]): 515%
- EC300 (human sirtuin-1 (Sirt1); Example 2, Table 6, Sirt1): 12.9 µM
- remaining activity at 0.3 µM (Sirt2; Example 2, Table 4, 0.3 µM, read-out: Activity [% control]): 114%
- remaining activity at 1 µM (Sirt2; Example 2, Table 4, 1.0 µM, read-out: Activity [% control]): 142%
- remaining activity at 3 µM (Sirt2; Example 2, Table 4, 3.0 µM, read-out: Activity [% control]): 204%
- remaining activity at 10 µM (Sirt2; Example 2, Table 4, 10.0 µM, read-out: Activity [% control]): 530%
- remaining activity at 30 µM (Sirt2; Example 2, Table 4, 30.0 µM, read-out: Activity [% control]): 914%
- EC300 (Sirt2; Example 2, Table 6, Sirt2): 4.9 µM
Compound: CCOC(=O)c1c(O)cccc1/C=C/c1ccc(OCC)cc1 [(I-1)]
- AMPK phosphorylation [% Control] ([1]; Experiment 1, Membrane 1, 3 µM): 60 % Control
- P-AMPK ([1]; Experiment 1, Membrane 1, 3 µM): 123 AU/mm^2
- Ratio P-AMPK/ GAPDH ([1]; Experiment 1, Membrane 1, 3 µM): 0.26
- AMPK phosphorylation [% Control] [1, 3]: 90 % Control
- P-AMPK [1, 3]: 202 AU/mm^2
- Ratio P-AMPK/ GAPDH [1, 3]: 0.38
- AMPK phosphorylation [% Control] [1, 4]: 1006 % Control
- P-AMPK [1, 4]: 2554 AU/mm^2
- Ratio P-AMPK/ GAPDH [1, 4]: 4.26
- cytotoxicity against NHEK [2]: no cytotoxicity
